Measured values from US20070110804A1, “Drug polymer complexes” (ROYER BIOMEDICAL, INC., priority 2003, published 2007).
In brackets after ≈: the same amount, converted by molar mass. Where two headings read alike, the source gives them in different places.

Tests used:
S. Aureus = details: cited from earlier work
Enterobacter spp. = details: cited from earlier work
[1] = Distribution of amikacin between gelatinous precipitate and supernatant on mixing amikacin sulfate with dextran sulfate (Na); format: physicochemical; details: amikacin sulfate solution mixed with dextran sulfate (Na) solution
From the text: As part of the normal preparation of a solid dosage form based on calcium sulfate, a solution of amikacin sulfate was mixed with a solution of dextran sulfate (Na).

[2] = Formation of a low-solubility polymer/drug complex (gel) on mixing polyanion sodium salt with the salt of the active ingredient
From the text: A “yes” entry means that a complex of low solubility forms on mixing the sodium salt of the polymers and the salt of the active ingredient.

E. Coli = details: cited from earlier work
P. Aeruginosa = details: cited from earlier work
[3] = In vitro release profile of the drug polymer complex in PBS at 37° C.; format: physicochemical; details: ½ dextran sulfate Mw 40,000 (40,000-50,000) and ½ Mw 500,000, FIG. 6
Method: Release profile: Dextran sulfate/amikacin wet gel (100 mg) was placed in 2 ml centrifuge tube. PBS buffer (500 μl) was added to the centrifuged tube. After incubation at 37° C. for 24 hrs, the mixture was centrifuged at 13,000 RPM for 5 minutes. The supernatant was removed and analyzed microbiologically for the presence of drug. The process was repeated at 24 hr intervals for 31 days. The amount of released drug in the eluate was calculated from a standard curve.
The release profile is illustrated in FIG. 1. The release profiles for the compounds of the other Figures were generated in a similar manner.

[4] = mixing sodium salt of Dextran Sulfate-500 and salt of the active ingredient
[5] = mixing sodium salt of CMC-L (low viscosity carboxymethylcellulose) and salt of the active ingredient
[6] = mixing sodium salt of CMC-M (medium viscosity carboxymethylcellulose) and salt of the active ingredient

Compound	complex of low solubility forms (yes/no), polymer Dextran Sulfate-500 [2]	complex of low solubility forms (yes/no), polymer Dextran Sulfate-500 [2, 4]	complex of low solubility forms (yes/no), polymer CMC-L [2, 5]	complex of low solubility forms (yes/no), polymer CMC-M [2, 6]	other results
NCC[C@H](O)C(=O)N[C@@H]1C[C@H](N)[C@@H](O[C@H]2O[C@H](CN)[C@@H](O)[C@H](O)[C@H]2O)[C@H](O)[C@H]1O[C@H]1O[C@H](CO)[C@@H](O)[C@H](N)[C@H]1O [Amikacin]	yes				MIC (S. Aureus): 1 µg/mL (≈ 1.71 µM); MIC (Enterobacter spp.): 2 µg/mL (≈ 3.42 µM); amikacin included in the gelatinous precipitate [1]: > 90%; amikacin remaining in the supernatant [1]: < 10%; complex of low solubility forms (yes/no), polymer CMC-L [2]: no; MIC (E. Coli): 2 µg/mL (≈ 3.42 µM); MIC (P. Aeruginosa): 2 µg/mL (≈ 3.42 µM)
CN1CCc2cccc3c2[C@H]1Cc1ccc(O)c(O)c1-3 [Apomorphine]		yes			
CN(C)CCCN1c2ccccc2Sc2ccc(Cl)cc21 [Chlorpromazine]	yes				complex of low solubility forms (yes/no), polymer CMC-L [2]: yes; complex of low solubility forms (yes/no), polymer CMC-M [2]: yes
CCCCOc1cc(C(=O)NCCN(CC)CC)c2ccccc2n1 [Dibucaine]		yes	yes	yes	
COc1cccc2c1C(=O)c1c(O)c3c(c(O)c1C2=O)C[C@@](O)(C(=O)CO)C[C@@H]3O[C@H]1C[C@H](N)[C@H](O)[C@H](C)O1 [Doxorubicin]		yes	yes	yes	
C[C@H]1c2cccc(O)c2C(=O)C2=C(O)[C@]3(O)C(=O)C(C(N)=O)=C(O)[C@@H](N(C)C)[C@@H]3[C@@H](O)[C@@H]21 [Doxycycline]		yes	yes	yes	
CC[C@H]1OC(=O)[C@H](C)[C@@H](O[C@H]2C[C@@](C)(OC)[C@@H](O)[C@H](C)O2)[C@H](C)[C@@H](O[C@@H]2O[C@H](C)C[C@H](N(C)C)[C@H]2O)[C@](C)(O)C[C@@H](C)C(=O)[C@H](C)[C@@H](O)[C@]1(C)O [Erythromycin]	yes				complex of low solubility forms (yes/no), polymer CMC-L [2]: no; complex of low solubility forms (yes/no), polymer CMC-M [2]: no
CCC(=O)C(CC(C)N(C)C)(c1ccccc1)c1ccccc1 (stereo not drawn) [Methadone]		yes	no	no	
O=C1CC[C@@]2(O)[C@H]3Cc4ccc(O)c5c4[C@@]2(CCN3CC2CC2)[C@H]1O5 [Naltrexone]		yes	no	no	
COc1ccc2c3c1O[C@H]1C(=O)CC[C@@]4(O)[C@@H](C2)N(C)CC[C@]314 [Oxycodone]		yes			release rate compared to all (500,000) dextran sulfate complex [3]: increases the release rate; release rate compared to all (500,000) dextran sulfate complex ([3]; listed as oxycodone): accelerated
CN(C)[C@@H]1C(O)=C(C(N)=O)C(=O)[C@@]2(O)C(O)=C3C(=O)c4c(O)cccc4[C@@](C)(O)[C@H]3[C@H](O)[C@@H]12 [Oxytetracycline]	yes				complex of low solubility forms (yes/no), polymer CMC-L [2]: yes; complex of low solubility forms (yes/no), polymer CMC-M [2]: yes
CCCNC(C)C(=O)Nc1ccccc1C (stereo not drawn) [Prilocaine]	yes				
CCN(CC)CCOC(=O)c1ccc(N)cc1 [Procaine]		yes			
[H]/N=C(/N)N[C@H]1[C@H](O)[C@@H](O)[C@H](O[C@@H]2O[C@@H](C)[C@](O)(C=O)[C@H]2O[C@@H]2O[C@@H](CO)[C@H](O)[C@@H](O)[C@@H]2NC)[C@@H](N/C(N)=N\[H])[C@@H]1O [Streptomycin]		yes			
CCCCNc1ccc(C(=O)OCCN(C)C)cc1 [Tetracaine]		yes	yes	yes	
NC[C@H]1O[C@H](O[C@H]2[C@H](O)[C@@H](O[C@H]3O[C@H](CO)[C@@H](O)[C@H](N)[C@H]3O)[C@H](N)C[C@@H]2N)[C@H](N)C[C@@H]1O [Tobramycin]		yes			
CN[C@H](CC(C)C)C(=O)N[C@H]1C(=O)N[C@@H](CC(N)=O)C(=O)N[C@H]2C(=O)N[C@H]3C(=O)N[C@H](C(=O)N[C@H](C(=O)O)c4cc(O)cc(O)c4-c4cc3ccc4O)[C@H](O)c3ccc(c(Cl)c3)Oc3cc2cc(c3O[C@@H]2O[C@H](CO)[C@@H](O)[C@H](O)[C@H]2O[C@H]2C[C@](C)(N)[C@H](O)[C@H](C)O2)Oc2ccc(cc2Cl)[C@H]1O [Vancomycin]	yes				complex of low solubility forms (yes/no), polymer CMC-L [2]: yes
Neomycin		yes	no	no	
